Laboratory results taken from US20260007601A1, “IONIZABLE CATIONIC LIPID COMPOUND AND COMPOSITION FOR DELIVERING NUCLEIC ACID AND USE THEREOF” (BEIJING YOUCAREKECHUANG PHARMACEUTICAL TECHNOLOGY CO., LTD., priority 2023, published 2026).
“And” between values parts separate entries of the source, which are not always exact repeats. Equal entries are not always repeated.

Tests used:
[1] = test system: 293T cells; assay: Cell survival rate assay (CCK-8); type: cell-based
Summary of the method: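 293T cells seeded at 10,000 per well and grown overnight, then exposed for 24 h to LNPs (cationic/neutral/structured/PEG lipids 49:10:39.5:1.5) carrying 1.5 μg Fluc-mRNA, or Lipofectamine 3000. Viability read by CCK-8, 1 h incubation, absorbance at 450 nm.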

[2] = test system: female BALB/C mice; assay: Mouse in vivo imaging of Fluc-mRNA LNP formulations; parameters: average radiation intensity (mRNA expression): unit not given here; details: for average radiation intensity (mRNA expression): 10 μg Fluc-mRNA LNP intramuscularly
Summary of the method: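 Female BALB/C mice (4–6 weeks, 17–19 g) received LNP carrying 10 μg Fluc-mRNA intramuscularly. Imaging substrate given intraperitoneally at 6 h, 24 h, 48 h and 7 d; after 5 min free movement, average radiance read by IVIS Spectrum imaging.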

[3] = Particle size and polydispersity index (PDI) of nanolipid particles, dynamic light scattering; type: physicochemical; details: LNP formulation prepared from the named cationic lipid, 25° C
Method: The particle size and polydispersity index (PDI) were determined by dynamic light scattering method using a Malvern laser particle size analyzer. 10 μL of liposome solution was diluted to 1 mL with RNase-free deionized water and added to a sample pool. Each sample was measured three times. The measurement conditions were: 90° scattering angle, 25° C.

[4] = Encapsulation rate, drug loading concentration and total RNA concentration detection (RiboGreen); type: physicochemical
[5] = LNP formulation of the named lipid

## CCCCCCCCC(CCCCCCCC)COC(=O)CCCCCN(CCCCCC(=O)OCC(CCCCCCCC)CCCCCCCC)CCN(C)CCO [YK-209, bis(2-octyldecyl)-6,6′-((2-(2-hydroxyethyl(methyl)amino)ethyl)azadialkyl)dihexanoate]
[1]; LNP containing 1.5 μg Fluc-mRNA, 24 hours, CCK-8
  Cell survival rate: 76.69%
[1]; difference of rates
  cell survival rate higher (cytotoxicity reduced) compared with YK-221: 55% and 55.74%
  cell survival rate higher (toxicity lower) than that of YK-204: 34.12%
  cell survival rate higher (toxicity lower) than that of YK-225: 30% and 33.28%
  cell survival rate higher than that of ALC-0315: 26.73%
  cell survival rate higher than that of HHMA: 11.13%
  cell survival rate higher than that of Lipofectamine 3000: 53.64%
  cell survival rate higher than that of SM-102: 8.14%
  cell survival rate higher than that of YK-203: 41.13%
  cell survival rate higher than that of YK-205: 17.77%
  cell survival rate higher than that of YK-208: 30.01%
  cell survival rate higher than that of YK-210: 38.31%
  cell survival rate higher than that of YK-211: 24.39%
  cell survival rate higher than that of YK-212: 41.43%
  cell survival rate higher than that of YK-213: 35.25%
  cell survival rate higher than that of YK-214: 51.11% and 50%
  cell survival rate higher than that of YK-215: 32.10%
  cell survival rate higher than that of YK-216: 30.89%
  cell survival rate higher than that of YK-217: 34.42%
  cell survival rate higher than that of YK-219: 18.08%
  cell survival rate higher than that of YK-220: 17.70%
  cell survival rate higher than that of YK-222: 42.94%
  cell survival rate higher than that of YK-223: 40.05%
  cell survival rate higher than that of YK-224: 53.22%
  cell survival rate higher than that of YK-226: 48.79%
  cell survival rate higher than that of compound 21: 7.67%
  cell survival rate higher than that of compound 23: 6.59%
[2]; 6 h
  average radiation intensity, times that of ALC-0315: 3.00 times
  average radiation intensity, times that of HHMA: 3.95 times
  average radiation intensity, times that of SM-102: 3.72 times
  average radiation intensity, times that of compound 21: 4.20 times
  average radiation intensity, times that of compound 23: 4.25 times
  mRNA expression level, times that of YK-204: 71.62 times
  mRNA expression level, times that of YK-223: 243.77 times
  average radiation intensity (mRNA expression): 2524250
[2]; 6 hours
  expression level, times that of YK-215: 49.92 times
  expression level, times that of YK-217: 102.67 times
[2]; 24 h
  average radiation intensity, times that of ALC-0315: 10.25 times
  average radiation intensity, times that of HHMA: 17.05 times
  average radiation intensity, times that of SM-102: 16.14 times
  average radiation intensity, times that of compound 21: 17.31 times
  average radiation intensity, times that of compound 23: 16.86 times
  mRNA expression level, times that of YK-204: 357.40 times
  mRNA expression level, times that of YK-223: 1046.60 times
  average radiation intensity (mRNA expression): 1869220
[2]; 24 hours
  expression level, times that of YK-215: 274.28 times
  expression level, times that of YK-217: 705.37 times
[2]; 48 h
  average radiation intensity, times that of ALC-0315: 16.50 times
  average radiation intensity, times that of HHMA: 21.36 times
  average radiation intensity, times that of SM-102: 20.59 times
  average radiation intensity, times that of compound 21: 20.95 times
  average radiation intensity, times that of compound 23: 19.61 times
  mRNA expression level, times that of YK-204: 257.82 times
  mRNA expression level, times that of YK-223: 927.85 times
  average radiation intensity (mRNA expression): 629080
[2]; 48 hours
  expression level, times that of YK-215: 172.82 times
  expression level, times that of YK-217: 614.34 times
[2]; 7 d
  average radiation intensity, times that of ALC-0315: 4.00 times
  average radiation intensity, times that of HHMA: 4.96 times
  average radiation intensity, times that of SM-102: 4.47 times
  average radiation intensity, times that of compound 21: 4.32 times
  average radiation intensity, times that of compound 23: 4.52 times
  expression level, times that of YK-215: 25.84 times
  expression level, times that of YK-217: 50.40 times
  mRNA expression level, times that of YK-204: 34.96 times
  mRNA expression level, times that of YK-223: 59.91 times
  average radiation intensity (mRNA expression): 26361
[3]
  PDI: 26.6%
  Particle size: 226 nm
[4]
  drug loading concentration, times that of ALC-0315: 1.60 times
  drug loading concentration, times that of HHMA: 1.36 times
  drug loading concentration, times that of SM-102: 1.64 times
  drug loading concentration, times that of YK-009: 1.55 times
  drug loading concentration, times that of compound 21: 1.85 times
  drug loading concentration, times that of compound 23: 2.02 times and 2 times
  total RNA concentration, times that of ALC-0315: 1.17 times
  total RNA concentration, times that of HHMA: 1.15 times
  total RNA concentration, times that of SM-102: 1.23 times
  total RNA concentration, times that of YK-009: 1.12 times
  total RNA concentration, times that of compound 21: 1.41 times
  total RNA concentration, times that of compound 23: 1.34 times
[4]; [5]
  Drug loading concentration: 41.76 µg/mL
  Encapsulation rate: 96.2%
  Total RNA concentration: 43.42 µg/mL
[4]; difference of rates
  encapsulation rate higher than that of ALC-0315: 33.40%
  encapsulation rate higher than that of HHMA: 35.70%
  encapsulation rate higher than that of SM-102: 33.90%
  encapsulation rate higher than that of YK-009: 33.20%
  encapsulation rate higher than that of compound 21: 38.40%
  encapsulation rate higher than that of compound 23: 41%
